Data: patent US20260021137A1, “COMPOSITIONS FOR TREATING COLITIS AND/OR PREVENTING COLON CANCER” (Purdue Research Foundation, priority 2020, published 2026)
Marks after values point to notes of the source that are not given here.

How the values were obtained:
gut microbiota = assay: Gut microbiota analysis by 16S rRNA gene sequencing of feces; assay type: in vivo, male Balb/c mice; conditions: for modulatory effect on gut microbes as δTE and δTE-13′: unpublished data by Liu and Jiang
Protocol: DNAs from ^˜30-40 mg fecal samples were isolated using FASTDNA™ SPIN kit for isolating DNA from soil (MP Biomedicals, Solon, Ohio). The quality of the DNAs was assessed by NanoDrop One (260/280 OD ratio) (Thermo Fisher Scientific. Weltham, Mass.) and 0.8% agarose gel electrophoresis. The DNAs were stained with Hoechst 33258 dye and quantities were determined using a NanoDrop 3300 fluorospectrometer (Thermo Fisher Scientific. Weltham, Mass.).
DNA templates (10 ng) were used for two-step polymerase chain reactions (PCRs) using Q5 High Fidelity DNA Polymerase to minimize errors (New England Biolabs, Ipswich, Mass.). The first PCR reaction is to amplify the 16S rRNA V3 and V4 region (^˜460 bp), with forward primer (343-357: 5′ TAC CGR AGG CAG CAG 3′), and a reverse primer (804-790: 5′ CTA CCR GGG TAT CTA ATCC 3′). which is based on primer accuracy and coverage of phylogenetic information that has been determined for short sequencing reads. Four degenerate bases were added to the 1st cycle forward primers to maximize detected microbial diversity and improve the base-calling accuracy of sequencing. The second PCR is to tag the amplicons with unique barcodes using 8-bp tagged forward and reverse primers (Illumina) (support.illumina.com). The number of PCR cycles were 15 in the first step and 5 in the second step to minimize formation of PCR artifacts. After each PCR, unincorporated primers and nucleotides were removed from PCR amplicons using Agencourt AMPure XP kit (Beckman Coulter). The PCR products were evaluated by 1.2% agarose gel and quantified using a NanoDrop 3300 fluorospectrometer after staining with Quantifluor dsDNA Assay Kit (Promega, Madison, Wis.). Amplicons from each sample were combined in equimolar quantities for 250 bp pair-end sequencing using a MiSeq system (Illumina, San Diego, Calif.).
The raw sequencing data were processed on the QIIME2 platform. The quality of the sequences was checked and bases with low-quality scores (Q less than 30) were trimmed. After denoising, merging and chimeric-checking using DADA2, amplicon sequence variants (ASVs) were aligned with the SILVA 132 marker gene reference database. After rarefaction, microbial alpha diversities were computed using observed OTUs, Faith Phylogenetic Diversity (PD), Piclou evenness and Shannon indices. For beta diversities, principal coordinate analysis (PCoA) was performed using Unweighted UniFrac, Weighted UniFrac, Jaccard and Bray Curtis distance matrices. Permutational (non-parametric) multivariate statistic (perMANOVA) and permutation analysis of multivariate dispersions (PERMDISP) were used to determine beta diversity significance. To identify differential abundant taxa, we performed analysis of composition of microbiomes (ANCOM) followed by Kruskal-Wallis to determine pair-wise significance. ANCOM takes into account the compositional nature of the dataset and compares absolute abundance in the community. Furthermore, we used linear discriminant analysis (LDA) effect size (LEfSe) to identify microbial taxa that are enriched by the dietary treatments. The cutoff for LDA was set at 3.5. In addition, canonical correspondence analysis (CCA) in PAST3 (Paleontological statistics) was used to determine correlation between relative abundances (at the species level) of gut microbial communities and environmental variables including AOM/DSS treatment, δTE, δTE-13′, ratio of colon length/weight (L/W) and large-size tumors. Significance of the model for the correlations was calculated using a Monte Carlo test with 999 permutations.
Tumor multiplicity and log transformed tumor area were analyzed by Kruskal-Wallis followed by Mann-Whitney test. Vitamin E and metabolites were compared using Student's t test. For cytokine data, Mann-Whitney test was used to compare two groups including AD vs. non-AD, AD vs. δTE, and AD vs. δTE-13′. PAST 3.24 was used for analysis of Spearman correlation among cytokines and multiple factors. […]

[1] = Body weight, food intake and organ weight during supplementation; assay type: in vivo, male Balb/c mice; conditions: supplementation for more than two months
Protocol: The animal use protocol was approved by the Animal Care and Use Committee at Purdue University. After one-weck adaptation, 6-7 weck old male Balb/c mice from Harlan, (Indianapolis, IN) were i.p. injected with AOM at 9.5 mg/kg body weight. A week later, AOM-injected mice were randomized into AIN-93G (control), δTE-supplemented and δTE-13′-supplemented groups. Meanwhile, mice were given 1.5% DSS in drinking water for 1 week. The DSS cycle was repeated after a two-week interval (design outlined in FIG. 1C). During DSS treatment, we evaluated colitis severity by monitoring body weight, food intake, rectal bleeding and stool consistency. Clinical colitis scores were quantified as follows: bleeding, 0=no blood, 1=feces with blood less than 50%, 2=feces with blood more than 50% but less than 100%, and 3=feces with full blood; stool softness, 0=hard, 1=a bit soft, 2=soft, and 3=very soft.

MCP-1 = assay: Multiplex cytokine assay in colon homogenates: MCP-1; assay type: in vivo, male Balb/c mice; conditions: AOM/DSS-treated mice, vs control diet
Protocol: (§1) Colon tissues were homogenized with POLYTRON® homogenizer (Kinematica AG, Switzerland) on ice in the lysis buffer consisting of 150 mM NaCl, 1 mM EDTA (pH 8.0), 20 mM Tris (pH 7.5), 0.5% Tween 20, 10 uM indomethacin (Cayman), and 1× protease inhibitor cocktail (Sigma). Protein concentrations in tissue homogenates were quantified by BCA assay. The concentrations of selected cytokines were analyzed using a Mouse Cytokine Array Proinflammatory Focused 10-Plex Discovery Assay by Eve Technologies (Calgary, AB Canada). The 10-Plex Discovery Assay includes IFNγ, IL-1β, GM-CSF, IL-2, IL-4, IL-6, IL-10, IL-12p70, MCP-1 and TNFα.
(§2) Tumor multiplicity and log transformed tumor area were analyzed by Kruskal-Wallis followed by Mann-Whitney test. Vitamin E and metabolites were compared using Student's t test. For cytokine data, Mann-Whitney test was used to compare two groups including AD vs. non-AD, AD vs. δTE, and AD vs. δTE-13′. PAST 3.24 was used for analysis of Spearman correlation among cytokines and multiple factors. For correlation analysis of gut microbiota and δTE-13′, Spearman correlation tests were performed using RStudio 1.1.456 and adjusted with Benjamini-Hochberg correction to control the false discovery rate for multiple testing. Other statistical analyses are described in figure captions.

[2] = Concentrations of vitamin E forms and metabolites in plasma and feces; assay type: in vivo
Protocol: Vitamin E forms were extracted as previously described. Briefly, plasma tocopherols and metabolites were extracted using a mixture of methanol/hexane (1/2,v/v) in the presence of butylated hydroxytoluene (BHT; 0.8 mM) and ascorbate (0.2 mg/ml). […] The Journal of Nutritional Biochemistry. 2009;20:894-900. For fecal samples, ˜30 mg feces were smashed and homogenized in 2 ml methanol with BHT (0.8 mM) and ascorbate (0.2 mg/ml). After brief centrifugation, a 1.4 ml methanol layer was obtained and added with 200 μl of PBS, and extracted by 5 ml hexane. For plasma and fecal samples, the hexane and methanol layer were used for quantification of vitamin E forms and metabolites, respectively.
Different vitamin E forms were separated on a 150×4.6 mm, 5 μm SUPELCOSIL™ LC-18-DB column (Supelco, Bellefonte, PA), and eluted with 95/5 (v/v) methanol/0.1M lithium acetate (final 25 mM, pH 4.75) at a flow rate of 1.3 ml/min. Tocopherols and tocotrienols were monitored by coulometric detection (Model Coulochem II, ESA Inc., Chelmsford, MA) at 300 (upstream) and 500 mV (down-stream electrode) using a Model 5011 analytical cell
The detailed LC-MS/MS method for analyzing vitamin E metabolites has been previously reported. See Jiang Q, Xu T, Huang J, Jannasch AS, Cooper B, Yang C. Analysis of vitamin E metabolites including carboxychromanols and sulfated derivatives using LC/MS/MS. J Lipid Res. 2015;56:2217-25. Briefly, vitamin E metabolites were quantified based on external standards with internal standards for correction of injection and extraction. The LC-MS/MS analysis was done with an Agilent1200 liquid chromatography system coupled to an Agilent 6460 QQQ mass spectrometer equipped with a jet stream electrospray ionization (ESI) source (Santa Clara, CA). The chromatography utilized an Atlantis dC18 column (2.1×150 mm, 3 μm) from Water's Corporation (Milford, MA). Buffer A and B consisted of acetonitrile/ethanol/water (165/135/700, v/v/v) and acetonitrile/ethanol/water (539/441/20, v/v/v), respectively. The LC gradient ran at 0.3 ml/min as follows: 0-1 min, 0% B; at 30 min, 99% B; at 35 min, 99% B; at 37 min, 0% B. Negative polarity ESI was used with gas temperature of 325° C., gas flow at 10 L/min, nebulizer pressure at 30 psi, sheath gas temperature of 250° C., sheath gas flow at 7 L/min, capillary voltage at 4000V, nozzle voltage at 1500 V, and an electron multiplier voltage of −300 V. All data were evaluated with Agilent MassHunter Qualitative Analysis software, versionB.01.06.

GM-CSF = assay: Multiplex cytokine assay in colon homogenates: GM-CSF; assay type: in vivo, male Balb/c mice; conditions: AOM/DSS-treated mice, vs control diet
Protocol: as §1, §2

[3] = system: AOM/DSS-induced colon tumorigenesis; conditions: 0.022% diet; previous study; cited from earlier work
[4] = system: AOM/DSS-induced colon tumorigenesis; assay: AOM/DSS-induced colon tumorigenesis in mice; assay type: in vivo, male Balb/c mice; conditions: AOM/DSS-treated mice; δTE/γTE (8/1) 0.035% diet or δTE-13′ 0.04% diet
Protocol: FIG. 1 illustrates (A) The chemical structures of δTE, γTE and δTE-13′; (B) Metabolism of δTE and δTE-13′; and (C) The study design of AOM/DSS model in mice-Six-seven-week old male Balb/c mice were i.p. injected with AOM at 9.5 mg/kg body weight. A week later, AOM-injected mice were randomized into AIN-93G (control), δTE-supplemented and δTE-13′-supplemented groups. Meanwhile, mice were given 1.5% DSS in drinking water for 1 week. The DSS cycle was repeated after a two-week interval.
δTE-13′ (>92%) used in animal studies was isolated from Garcinia kola seeds based on published procedures. See Jang Y, Park N Y, Rostgaard-Hansen A L, Huang J, Jiang Q. Vitamin E metabolite 13′-carboxychromanols inhibit pro-inflammatory enzymes, induce apoptosis and autophagy in human cancer cells by modulating sphingolipids and suppress colon tumor development in mice. Free Radical Biology & Medicine. 2016;95:190-9. Azoxymethane (AOM) was purchased from Sigma and dextran sodium sulfate (DSS, Mw36,000-50,000 Da) was from MP Biochemicals (Solon, OH). δTE/γTE (8/1) was a gift from American River Nutrition (Hadley, MA). AIN-93G diet was used as the control diet. […]
The animal use protocol was approved by the Animal Care and Use Committee at Purdue University. […] During DSS treatment, we evaluated colitis severity by monitoring body weight, food intake, rectal bleeding and stool consistency. Clinical colitis scores were quantified as follows: bleeding, 0=no blood, 1=feces with blood less than 50%, 2=feces with blood more than 50% but less than 100%, and 3=feces with full blood; stool softness, 0=hard, 1=a bit soft, 2=soft, and 3=very soft.
During tissue harvest, colons were removed, rinsed with cold PBS, cut open longitudinally, and macroscopically examined. The size and number of macroscopic tumors were measured and recorded. […]
Tumor multiplicity and log transformed tumor area were analyzed by Kruskal-Wallis followed by Mann-Whitney test. […]

[5] = ANCOM, compared with control diet in AD-treated or healthy mice
[6] = LEfSe, LDA cutoff 3.5, AOM/DSS-treated mice
[7] = fecal microbiota, AOM/DSS-treated mice, mean ± SEM

Compound: Cc1c(C)c2c(c(C)c1O)CC[C@@](C)(CCC[C@H](C)CCC[C@H](C)CCCC(C)C)O2 [αT, α-tocopherol, reference compound]
- modulatory effect on gut microbes as δTE and δTE-13′ (gut microbiota): do not share the same modulatory effect

Compound: Cc1c(O)cc2c(c1C)O[C@](C)(CCC[C@H](C)CCC[C@H](C)CCCC(C)C)CC2 [γT, γ-tocopherol, reference compound]
- modulatory effect on gut microbes as δTE and δTE-13′ (gut microbiota): do not share the same modulatory effect

Compound: C/C(=C\CC/C(C)=C/CCC1(C)CCc2cc(O)cc(C)c2O1)CC/C=C(\C)C(=O)O (centres unmarked) [δTE-13′, δTE-13′-carboxychromanol]
- AOM/DSS-associated decrease of genus Roseburia (gut microbiota; ANCOM, relative abundance): partially reversed
- relative abundance of Streptococccaceae family (gut microbiota; [5]): significantly elevated
- relative abundance of genus Lactococcus (gut microbiota; [5]): significantly elevated
- Bacteroides (LEfSe) (gut microbiota; [6]): enriched
- Parabacteroides goldsteinii CL02T12C30 (LEfSe) (gut microbiota; [6]): enriched
- ratio of Firmicutes to Bacteroidetes in feces (gut microbiota; compared with healthy controls): appeared to decrease
- alpha diversity: Evenness (gut microbiota; [7]): 0.81 ± 0.01^b
- alpha diversity: Faith PD (gut microbiota; [7]): 10.42 ± 0.24^a
- alpha diversity: Observed OTU (gut microbiota; [7]): 177.06 ± 8.75^a
- alpha diversity: Shannon (gut microbiota; [7]): 6.05 ± 0.07^a
- effect on animals' body weight [1]: did not affect
- effect on food intake [1]: did not affect
- effect on organ weight [1]: did not affect
- AOM/DSS-induced MCP-1 in colon homogenates (MCP-1): significant reduction
- parental compound in the plasma ([2]; δTE-13′ supplementation): did not result in detectable amount
- δTE-13′ with 3 DB (the parental compound) in feces ([2]; δTE-13′ supplementation): increased
- fecal δTE-13′ with 2 DB relative to that from δTE ([2]; δTE-13′ vs δTE supplementation): significantly higher
- plasma concentrations of metabolites relative to those from δTE ([2]; δTE-13′ vs δTE supplementation): about twice as much
- AOM/DSS-induced GM-CSF in colon homogenates (GM-CSF): significant reduction
- large-size tumor multiplicity [3]: significantly suppressed
- total tumor multiplicity [3]: significantly suppressed
- decrease of large size (>2 mm^2) polyps compared with control diet [4]: 55%
- decrease of total polyps (total tumor multiplicity) compared with control diet [4]: 25%
- decrease of tumor surface area [4]: 38%
